target: human activated kallikrein enzyme (Homo sapiens (Human), UniProt P03952); assay: Plasma kallikrein inhibition assay with fluorogenic peptide substrate, 500 pM activated kallikrein format; format: biochemical; details: 500 pM activated kallikrein; 300 uM Pro-Phe-Arg-7-amido-4-methylcoumarin substrate; 30 min preincubation, 10 min reaction at RT; read-out: Primary Dose Response Assay: Average EC50
In short: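 Human activated kallikrein (500 pM format) was preincubated 30 min at RT with inhibitor in 20 mM Tris pH 7.5, 150 mM NaCl, 1 mM EDTA, 0.1% PEG-400, 0.1% Triton X-100. Reactions then ran 10 min at RT with 300 uM Pro-Phe-Arg-AMC. Fluorescence was read at ex 380/em 460 nm.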

Sequence of human activated kallikrein enzyme (P03952 391-638): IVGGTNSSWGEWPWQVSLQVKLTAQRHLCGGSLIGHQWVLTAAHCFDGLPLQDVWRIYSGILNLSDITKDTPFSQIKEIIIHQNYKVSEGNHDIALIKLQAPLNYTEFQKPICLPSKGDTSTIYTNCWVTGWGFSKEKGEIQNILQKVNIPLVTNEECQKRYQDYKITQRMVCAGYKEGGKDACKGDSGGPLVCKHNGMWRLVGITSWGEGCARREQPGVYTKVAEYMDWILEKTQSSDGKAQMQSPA
Sequence of human activated kallikrein enzyme (P03952 20-390 partner): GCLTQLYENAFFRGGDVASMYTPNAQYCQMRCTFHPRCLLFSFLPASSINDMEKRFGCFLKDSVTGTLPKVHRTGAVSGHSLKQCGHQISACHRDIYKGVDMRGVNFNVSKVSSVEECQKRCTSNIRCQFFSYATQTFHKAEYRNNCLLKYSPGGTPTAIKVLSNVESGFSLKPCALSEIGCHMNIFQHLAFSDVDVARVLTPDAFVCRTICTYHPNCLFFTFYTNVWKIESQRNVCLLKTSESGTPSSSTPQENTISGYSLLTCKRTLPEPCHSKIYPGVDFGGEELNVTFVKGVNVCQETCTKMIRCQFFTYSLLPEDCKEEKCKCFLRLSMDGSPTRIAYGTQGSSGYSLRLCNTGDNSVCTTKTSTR

Row | Compound | EC50
1 | COc1ccc(-n2cnnn2)c(CNC(=O)c2nnc(Cc3cn4cc(C5CC5)ccc4n3)o2)c1F [Example I-94, 5-((6-cyclopropylimidazo[1,2-a]pyridin-2-yl)methyl)-N-(2-fluoro-3-methoxy-6-(1H-tetrazol-1-yl)benzyl)-1,3,4-oxadiazole-2-carboxamide] | ≤ 1 nM
2 | O=C(NCc1ccccc1)c1cn(Cc2cn3cc(C4CC4)ccc3n2)nn1 [Example I-60, N-benzyl-1-((6-cyclopropylimidazo[1,2-a]pyridin-2-yl)methyl)-1H-1,2,3-triazole-4-carboxamide] | > 7100 nM
3 | O=C(NCc1ccc2[nH]cc(Cl)c2c1)c1cn(Cc2cn3cc(C4CC4)ccc3n2)nn1 [Example I-65, N-((3-chloro-1H-indol-5-yl)methyl)-1-((6-cyclopropylimidazo[1,2-a]pyridin-2-yl)methyl)-1H-1,2,3-triazole-4-carboxamide] | 10 to 100 nM
4 | O=S(=O)(NCCOc1ccccc1)c1cnn(Cc2cn3cc(C4CC4)ccc3n2)c1 [Example I-36, 1-((6-cyclopropylimidazo[1,2-a]pyridin-2-yl)methyl)-N-(2-phenoxyethyl)-1H-pyrazole-4-sulfonamide] | > 7100 nM
5 | O=C(NCc1cc2ccc(Cl)cc2s1)c1cn(Cc2cn3cc(C4CC4)ccc3n2)nn1 [Example I-77, N-((6-chlorobenzo[b]thiophen-2-yl)methyl)-1-((6-cyclopropylimidazo[1,2-a]pyridin-2-yl)methyl)-1H-1,2,3-triazole-4-carboxamide] | > 7100 nM
6 | CS(=O)(=O)c1ccccc1CNC(=O)c1cn(Cc2cn3cc(C4CC4)ccc3n2)nn1 [Example I-51, 1-((6-cyclopropylimidazo[1,2-a]pyridin-2-yl)methyl)-N-(2-(methylsulfonyl)benzyl)-1H-1,2,3-triazole-4-carboxamide] | 100 to 2000 nM
7 | COc1ccc(-n2cnnn2)c(CN(C)C(=O)c2cn(Cc3cn4cc(C5CC5)ccc4n3)nn2)c1F [Example I-66, 1-((6-cyclopropylimidazo[1,2-a]pyridin-2-yl)methyl)-N-(2-fluoro-3-methoxy-6-(1H-tetrazol-1-yl)benzyl)-N-methyl-1H-1,2,3-triazole-4-carboxamide] | 100 to 2000 nM
8 | O=S(=O)(NCCc1ccc(Cl)cc1)c1cnn(Cc2cn3cc(C4CC4)ccc3n2)c1 [Example I-35, N-(4-chlorophenethyl)-1-((6-cyclopropylimidazo[1,2-a]pyridin-2-yl)methyl)-1H-pyrazole-4-sulfonamide] | > 7100 nM
9 | COc1ccc(-c2cnc(C(=O)O)nc2)c(CNC(=O)c2cn(Cc3cn4cc(C5CC5)ccc4n3)nn2)c1F [Example I-74, 5-(2-((1-((6-cyclopropylimidazo[1,2-a]pyridin-2-yl)methyl)-1H-1,2,3-triazole-4-carboxamido)methyl)-3-fluoro-4-methoxyphenyl)pyrimidine-2-carboxylic Acid] | 1 to 10 nM
10 | COc1ccc(-n2cnnn2)c(CNCc2cn(Cc3cn4cc(C5CC5)ccc4n3)nn2)c1F [Example I-29, 1-(1-((6-cyclopropylimidazo[1,2-a]pyridin-2-yl)methyl)-1H-1,2,3-triazol-4-yl)-N-(2-fluoro-3-methoxy-6-(1H-tetrazol-1-yl)benzyl)methanamine] | 1 to 10 nM
11 | Cc1cc(C(=N)N)cc(C)c1CNC(=O)c1cn(Cc2cn3cc(C4CC4)cc(C(=O)O)c3n2)nn1 [Example I-111, 2-((4-((4-carbamimidoyl-2,6-dimethylbenzyl)carbamoyl)-1H-1,2,3-triazol-1-yl)methyl)-6-cyclopropylimidazo[1,2-a]pyridine-8-carboxylic Acid] | ≤ 1 nM
12 | O=C(O)CCc1cc(C2CC2)cn2cc(Cn3cc(C(=O)NCc4c(-n5cnnn5)ccc(Cl)c4F)nn3)nc12 [Example I-109, 3-(2-((4-((3-choro-2-fluoro-6-(1H-tetrazol-1-yl)benzyl)carbamoyl)-1H-1,2,3-triazol-1-yl)methyl)-6-cyclopropylimidazo[1,2-a]pyridin-8-yl)propanoic Acid] | ≤ 1 nM
13 | COc1ccc(-n2cnnn2)c(CNC(=O)c2cn(Cc3cn4cc(C5CC5)cc(F)c4n3)nn2)c1F [Example I-99, 1-((6-cyclopropyl-8-fluoroimidazo[1,2-a]pyridin-2-yl)methyl)-N-(2-fluoro-3-methoxy-6-(1H-tetrazol-1-yl)benzyl)-1H-1,2,3-triazole-4-carboxamide] | ≤ 1 nM
14 | CC(NS(=O)(=O)c1cnn(Cc2cn3cc(C4CC4)ccc3n2)c1)c1cccc(Cl)c1 (centres unmarked) [Example I-38, N-(1-(3-chlorophenyl)ethyl)-1-((6-cyclopropylimidazo[1,2-a]pyridin-2-yl)methyl)-1H-pyrazole-4-sulfonamide] | > 7100 nM
15 | COc1ccc(-c2ccc(C(=O)O)cc2)c(CNC(=O)c2cn(Cc3cn4cc(C5CC5)ccc4n3)nn2)c1F [Example I-88, 2′-((1-((6-cyclopropylimidazo[1,2-a]pyridin-2-yl)methyl)-1H-1,2,3-triazole-4-carboxamido)methyl)-3′-fluoro-4′-methoxy-[1,1′-biphenyl]-4-carboxylic acid] | 1 to 10 nM
16 | COc1ccc(-n2cnnn2)c(CNC(=O)c2cc3n(n2)CCC3c2cn3cc(C4CC4)ccc3n2)c1F (centres unmarked) [Example I-2, 4-(6-cyclopropylimidazo[1,2-a]pyridin-2-yl)-N-(2-fluoro-3-methoxy-6-(1H-tetrazol-1-yl)benzyl)-5,6-dihydro-41-pyrrolo[1,2-b]pyrazole-2-carboxamide] | 1 to 10 nM
17 | COc1ccnc(CNC(=O)c2cn3c(n2)CCC3c2cn3cc(C4CC4)ccc3n2)c1F (centres unmarked) [Example I-5, 5-(6-cyclopropylimidazo[1,2-a]pyridin-2-yl)-N-((3-fluoro-4-methoxypyridin-2-yl)methyl)-6,7-dihydro-5H-pyrrolo[1,2-a]imidazole-2-carboxamide] | 10 to 100 nM
18 | COc1ccc(-n2cnnn2)c(C(C)NC(=O)c2cn(Cc3cn4cc(C5CC5)ccc4n3)nn2)c1F (centres unmarked) [Example I-31, 1-((6-cyclopropylimidazo[1,2-a]pyridin-2-yl)methyl)-N-(1-(2-fluoro-3-methoxy-6-(1H-tetrazol-1-yl)phenyl)ethyl)-1H-1,2,3-triazole-4-carboxamide] | 1 to 10 nM
19 | Cc1cc(N)nc(C)c1CNC(=O)c1cn(Cc2cn3cc(C4CC4)ccc3n2)nn1 [Example I-26, N-((6-amino-2,4-dimethylpyridin-3-yl)methyl)-1-((6-cyclopropylimidazo[1,2-a]pyridin-2-yl)methyl)-1H-1,2,3-triazole-4-carboxamide] | ≤ 1 nM
20 | CC(NS(=O)(=O)c1cnn(Cc2cn3cc(C4CC4)ccc3n2)c1)c1ccc(Cl)cc1 (centres unmarked) [Example I-37] | > 7100 nM

The remaining lines, values ahead:

Row | EC50 | Compound
21 | 2000 to 7100 nM | O=C(NCc1cccc2ccc(Cl)cc12)c1cnn(Cc2cn3cc(C4CC4)ccc3n2)c1 [Example I-130, N-((7-chloronaphthalen-1-yl)methyl)-1-((6-cyclopropylimidazo[1,2-a]pyridin-2-yl)methyl)-1H-pyrazole-4-carboxamide]
22 | 10 to 100 nM | O=C(NC1CCc2c(Cl)ccn3cnc1c23)c1cn(Cc2cn3cc(C4CC4)ccc3n2)nn1 (centres unmarked) [Example I-135, N-(6-chloro-8,9-dihydro-7H-imidazo[4,5,1-ij]quinolin-9-yl)-1-((6-cyclopropylimidazo[1,2-a]pyridin-2-yl)methyl)-1H-1,2,3-triazole-4-carboxamide]
23 | 100 to 2000 nM | O=C(NCc1nccc2ccc(Cl)cc12)c1cnn(Cc2cn3cc(C4CC4)ccc3n2)c1 [Example I-131, N-((7-chloroisoquinolin-1-yl)methyl)-1-((6-cyclopropylimidazo[1,2-a]pyridin-2-yl)methyl)-1H-pyrazole-4-carboxamide]
24 | 100 to 2000 nM | O=C(NCc1cc2c(cn1)NCC2)c1cn(Cc2cn3cc(C4CC4)ccc3n2)nn1 [Example I-148, 1-((6-cyclopropylimidazo[1,2-a]pyridin-2-yl)methyl)-N-((2,3-dihydro-1H-pyrrolo[2,3-c]pyridin-5-yl)methyl)-1H-1,2,3-triazole-4-carboxamide]
25 | 1 to 10 nM | O=C(NCc1cc2c(Cl)c[nH]c2cn1)c1cn(Cc2cn3cc(C4CC4)ccc3n2)nn1 [Example I-146, N-((3-chloro-1H-pyrrolo[2,3-c]pyridin-5-yl)methyl)-1-((6-cyclopropylimidazo[1,2-a]pyridin-2-yl)methyl)-1H-1,2,3-triazole-4-carboxamide]
26 | ≤ 1 nM | O=C(NCc1c(-n2cnnn2)ccc(Cl)c1F)c1cnn(Cc2cn3cc(C4CC4)ccc3n2)c1 [Example I-116, N-(3-chloro-2-fluoro-6-(1H-tetrazol-1-yl)benzyl)-1-((6-cyclopropylimidazo[1,2-a]pyridin-2-yl)methyl)-1H-pyrazole-4-carboxamide]
27 | ≤ 1 nM | CCOC(=O)c1cc(C2CC2)cn2cc(Cn3cc(C(=O)NCc4c(C)cc(C(=N)N)cc4C)nn3)nc12 [Example I-112, ethyl 2-((4-((4-carbamimidoyl-2,6-dimethylbenzyl)carbamoyl)-1H-1,2,3-triazol-1-yl)methyl)-6-cyclopropylimidazo[1,2-a]pyridine-8-carboxylate]
28 | 1 to 10 nM | CN1CCN(c2cc(C3CC3)cn3cc(Cn4cc(C(=O)NCc5nccc(OC(F)F)c5F)nn4)nc23)CC1 [Example I-153]
29 | 1 to 10 nM | COc1ccc(C#N)c(CNC(=O)c2cnn(Cc3cn4cc(C5CC5)ccc4n3)c2)c1F [Example I-119, N-(6-cyano-2-fluoro-3-methoxybenzyl)-1-((6-cyclopropylimidazo[1,2-a]pyridin-2-yl)methyl)-1H-pyrazole-4-carboxamide]

Reference: patent US11787796B2, “Plasma Kallikrein inhibitors and uses thereof” (Takeda Pharmaceutical Company Limited, priority 2019, dated 2023)
